How the values were obtained:
Male C57BL/6 mice = assay: Oral glucose tolerance test in C57BL/6 mice; assay type: in vivo; conditions: 3 mpk and 10 mpk oral
Method: (§1) Male C57BL/6 mice (8-10 weeks) were grouped based on basal glucose levels and animals were fasted for 16 hours. Glucose level of each animal was estimated in blood collected from tail vein before animals were dosed orally with 0.5% Tween 80 and 0.5% NaCMC (vehicle control) and compounds at 3 and 10 mpk (n=5). After 30 minutes of compound dosing, blood glucose was again estimated and 2 g/kg/10 ml (20%) of Glucose solution was administered orally to all the animals. Blood glucose was estimated at 15, 30, 60, 90 and 120 minutes time points after glucose administration. Accu-Check active blood glucose meter was utilised for estimation of blood from tail vein.
Glucose reduction observed in animals treated with compounds of present invention is represented in terms of % AUC reduction. A greater glucose reduction in oral glucose tolerance test indicates the compound's efficacy in this rodent species.

Male SD rats = assay: Oral glucose tolerance test in Sprague-Dawley rats; assay type: in vivo; conditions: 3 mpk and 10 mpk oral
Method: as §1, with “SD rats” for “C57BL/6 mice”
Glucose reduction observed in animals treated with GPR119 agonists is represented in terms of % AUC reduction. A greater glucose reduction in oral glucose tolerance test indicates the compound's efficacy in this rodent species.

hGPR119 = target: T1, hGPR119 (Homo sapiens, UniProt Q8TDV5); assay: In vitro cyclic AMP assay (Cisbio HTRF) in CHO-hGPR119 cells; assay type: cell-based; conditions: cAMP; for activation at 1 µM: 1 h, 60 min, read-out: Induction (% induction at 1 μM); for EC50: class symbols, legend not given
T1 construct: expressed in transfected cells; host or cells: CHO cells (CHO-hGPR119)
T1 sequence (Q8TDV5 1-335): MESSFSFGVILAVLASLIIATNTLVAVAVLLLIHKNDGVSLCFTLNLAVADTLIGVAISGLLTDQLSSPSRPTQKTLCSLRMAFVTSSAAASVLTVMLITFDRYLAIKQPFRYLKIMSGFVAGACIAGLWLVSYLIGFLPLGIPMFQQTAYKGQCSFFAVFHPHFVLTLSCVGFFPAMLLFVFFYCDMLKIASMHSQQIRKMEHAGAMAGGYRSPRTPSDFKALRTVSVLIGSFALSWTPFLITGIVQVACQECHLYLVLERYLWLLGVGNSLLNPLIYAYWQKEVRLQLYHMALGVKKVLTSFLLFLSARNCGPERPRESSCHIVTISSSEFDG
How it was run: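 Cells plated at 5000/well and exposed to test compound dose series for 60 min at room temperature with 1 mM IBMX and 0.5% DMSO (final). Lysis with anti-cAMP antibody/d2-cAMP detection reagents, 1 h at room temperature; HTRF read at 665/620 nm (337 nm excitation); EC50 from concentration-response.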

## CC(C)c1noc(N2CCC([C@H](C)Oc3nn4cc(-c5cnc(S(C)(=O)=O)nc5)nc4s3)CC2)n1 [Compound 1072, (S)-3-isopropyl-5-(4-(1-((6-(2-(methylsulfonyl)pyrimidin-5-yl)imidazo[2,1-b][1,3,4]thiadiazol-2-yl)oxy)ethyl)piperidin-1-yl)-1,2,4-oxadiazole]
Male C57BL/6 mice
  glucose reduction (% AUC reduction) in oral glucose tolerance test: significant dose dependent glucose reduction
Male SD rats
  glucose reduction (% AUC reduction) in oral glucose tolerance test: significant dose dependent glucose reduction
hGPR119
  activation at 1 µM: 72%
  EC50: A++

## CCc1cnc(N2CCC([C@H](C)Oc3nn4cc(-c5ccc(S(C)(=O)=O)cc5F)nc4s3)CC2)nc1 [Compound 1086, 2-((S)-1-(1-(5-ethylpyrimidin-2-yl)piperidin-4-yl)ethoxy)-6-(2-fluoro-4-(methylsulfonyl)phenyl)imidazo[2,1-b][1,3,4]thiadiazole]
Male C57BL/6 mice
  glucose reduction (% AUC reduction) in oral glucose tolerance test: significant dose dependent glucose reduction
Male SD rats
  glucose reduction (% AUC reduction) in oral glucose tolerance test: significant dose dependent glucose reduction
hGPR119
  activation at 1 µM: 87%
  EC50: A++

## CC(C)c1noc(N2CCC([C@@H](C)Oc3nn4cc(-c5cnc(Cl)cn5)nc4s3)CC2)n1 [Compound 1087, 2-((R)-1-(1-(3-isopropyl-1,2,4-oxadiazol-5-yl)piperidin-4-yl)ethoxy)-6-(5-chloropyrazin-2-yl)imidazo[2,1-b][1,3,4]thiadiazole]
Male C57BL/6 mice
  glucose reduction (% AUC reduction) in oral glucose tolerance test: significant dose dependent glucose reduction
Male SD rats
  glucose reduction (% AUC reduction) in oral glucose tolerance test: significant dose dependent glucose reduction
hGPR119
  activation at 1 µM: 75%

## CC(C)OC(=O)N1CCC(C(C)Oc2nn3cc(-c4ccc(S(C)(=O)=O)cc4F)nc3s2)CC1 (stereo not drawn) [Compound 1101, Isopropyl 4-(1-(6-(2-fluoro-4-(methylsulfonyl)phenyl)imidazo[2,1-b][1,3,4]thiadiazol-2-yloxy)ethyl)piperidine-1-carboxylate]
Male C57BL/6 mice
  glucose reduction (% AUC reduction) in oral glucose tolerance test: significant dose dependent glucose reduction
Male SD rats
  glucose reduction (% AUC reduction) in oral glucose tolerance test: significant dose dependent glucose reduction
hGPR119
  activation at 1 µM: 84%

## CC(C)OC(=O)N1CCC([C@H](C)Oc2nn3cc(-c4ccc(S(C)(=O)=O)cc4F)nc3s2)CC1 [Compound 1108, isopropyl 4-((S)-1-(6-(2-fluoro-4-(methylsulfonyl)phenyl)imidazo[2,1-b][1,3,4]thiadiazol-2-yloxy)ethyl)piperidine-1-carboxylate]
Male C57BL/6 mice
  glucose reduction (% AUC reduction) in oral glucose tolerance test: significant dose dependent glucose reduction
Male SD rats
  glucose reduction (% AUC reduction) in oral glucose tolerance test: significant dose dependent glucose reduction
hGPR119
  activation at 1 µM: 70%
  EC50: A++

## CNS(=O)(=O)c1ccc(-c2cn3nc(OC(C)C4CCN(c5nc(C(C)C)no5)CC4)sc3n2)c(F)c1 (stereo not drawn) [Compound 1109, 3-fluoro-4-(2-(1-(1-(3-isopropyl-1,2,4-oxadiazol-5-yl)piperidin-4-yl)ethoxy)imidazo[2,1-b][1,3,4]thiadiazol-6-yl)-N-methylbenzenesulfonamide]
Male C57BL/6 mice
  glucose reduction (% AUC reduction) in oral glucose tolerance test: significant dose dependent glucose reduction
Male SD rats
  glucose reduction (% AUC reduction) in oral glucose tolerance test: significant dose dependent glucose reduction
hGPR119
  activation at 1 µM: 55%

Source: US10208030B2, “GPR119 agonist compounds” (Mankind Pharma Ltd., priority 2016, dated 2019)
